In patent US20240016784A1, “Y BOX BINDING PROTEIN 1 INHIBITORS” (Oregon Health & Science University, priority 2020, published 2024):

Key:
YB-1 and MDR1 expression = assay: Immunohistochemistry of ID8 tumor xenograft samples; assay type: in vivo, mice; settings: SU056 20 mg/kg
Protocol: Out of six targets identified, we selected proteins whose thermal shift is above 5° in the presence of SU056 for further study of protein expression after treatment. […] To study the in vivo effects of SU056 treatment, we analyzed ID8 tumor xenograft samples via immunohistochemistry (IHC). […] To identify the broader effects of SU056 on YB-1 and its downstream protein/activity in different ovarian cancer cell lines, we selected six different cell lines and treated them with SU056 (2.5 μM) for 12 h. Cells were analyzed for YB-1 and CD44 expression and Multidrug resistance 1 (MDR1, ABC pump mediated efflux). […] Finally, we tested the time kinetics and dose-dependent effects of SU056 on YB-1 expression. OVCAR4, OVCAR8, and SKOV3 cells were treated with SU056 (1, 2.5, and 5 μM) for 3, 6, 12, and 24 h and YB-1 expression was measured using YB-1 ELISA. […] 5 μM treatment for 24 h inhibited YB-1 completely (100%) in all three OC cells (FIG. 4E).
Immunohistochemistry: Fixed tumors and organs were embedded in paraffin. Each block was cut in 5 μm sections and fixed on poly-L lysine-coated slides. […]
FIGS. 4A-4E: SU056 inhibits YB-1. […] FIG. 4C) Respective OC cells were treated with 2.5 μM SU056 for 12 h and YB-1 & CD44 expression and multidrug resistance activity was measured as described in the ‘method’ section. The % inhibition was calculated and compared to the control for the respective cell line. […]

CALM3 = target: T1, CALM3 (Homo sapiens, UniProt P0DP25); assay: Cellular Thermal Shift Assay (CETSA) in OVCAR8 cells; assay type: binding; settings: SU056 2.5 μM, 1.5 h, read-out: increase in thermal stability (Tm shift) of CALM3
T1 construct: endogenous in cells; host or cells: OVCAR8
Protocol: (§1) The cellular thermal shift assay (CETSA) is based on the principle of protein-ligand interactions causing a shift in protein thermal stability (Savitski et al., 2014). When a protein interacts with ligand, its thermal stability increases, and this principle allows identification of which protein targets that are engaged by small molecules or drug candidates. We used this assay to identify protein targets of SU056. OVCAR8 cells were treated with SU056 (2.5 μM) for 1.5 h, and protein lysates were analyzed for a thermal shift. The heat maps represent the thermal stability of 804 soluble proteins in the presence and absence of SU056 compare with 37° C. (FIG. 3A).
(§2) Cellular Thermal Shift Assay (CETSA): The assay was performed as previously described (Savitski et al., 2014). Briefly, OVCAR8 cells were treated with vehicle (DMSO) or SU056 (2.5 μM) at 70-80% confluency for 1.5 h. Cells were harvested and washed with 1×PBS twice. Cells were pelleted and resuspended in PBS. 10 different PCR tubes with 1×10^6 cells/tube (in 100 μL PBS) were prepared for both the groups. Tubes were exposed to respective temperatures (37, 41, 44, 47, 50, 53, 56, 59, 63, 67° C.) for 3 min using a thermal cycler (Bio-Rad, CA, USA) followed by 2 min incubation at room temperature.

TMSB4X = target: T2, TMSB4X (Homo sapiens, UniProt P62328); assay: as above; assay type: binding; settings: SU056 2.5 μM, 1.5 h, read-out: increase in thermal stability (Tm shift) of TMSB4X
T2 construct: endogenous in cells; host or cells: OVCAR8
Protocol: as §1, §2

SUMO2 = target: T3, SUMO2 (Homo sapiens, UniProt P61956); assay: as above; assay type: binding; settings: SU056 2.5 μM, 1.5 h, read-out: increase in thermal stability (Tm shift) of SUMO2
T3 construct: endogenous in cells; host or cells: OVCAR8
Protocol: as §1, §2

TMSB10 = target: T4, TMSB10 (Homo sapiens, UniProt P63313); assay: as above; assay type: binding; settings: SU056 2.5 μM, 1.5 h, read-out: increase in thermal stability (Tm shift) of TMSB10
T4 construct: endogenous in cells; host or cells: OVCAR8
Protocol: as §1, §2

PSMB2 = target: T5, PSMB2 (Homo sapiens, UniProt P49721); assay: as above; assay type: binding; settings: SU056 2.5 μM, 1.5 h, read-out: increase in thermal stability (Tm shift) of PSMB2
T5 construct: endogenous in cells; host or cells: OVCAR8
Protocol: as §1, §2

[1] = tested on: MDA-MB-231, MDA-MB-468 and SUM 159 cells; assay: Cell cycle distribution in TNBC cells (flow cytometry); assay type: cell-based; settings: 12 and 24 hr
Protocol: FIG. 11A). The growth inhibitory effect of SU056 was evaluated using MTT assay. TNBC cell lines (MDA-MB-231, MDA-MB-468, SUM159, 4T1, E0771 and EMT6) were plated in 96 well plate. Next day, treated with vehicle (DMSO) alone or 0.005-50 μM of SU056 in fresh medium. After 48 hr of treatments, cell viability was measured using MTT assay. FIG. 11B). A total of 300-600 cells were plated per well of a 12-well plate and allowed to attach for 24 hr. […] Representative colony formations from respective wells of cell. FIG. 11C) Number of colonies formed after SU056 treatment. FIG. 11D) Effect of SU056 on cell cycle distribution in TNBC cells. MDA-MB-231, MDA-MB-468 and SUM 159 cells were treated with vehicle or SU056 for 12 and 24 hr. At the end of treatment, cells were collected and analysed using flow cytometry. […] SU056 induces level of phosphor-Histone H3 in cells at 12 and 24 hr.

T3 sequence (P61956 1-93 limits assumed): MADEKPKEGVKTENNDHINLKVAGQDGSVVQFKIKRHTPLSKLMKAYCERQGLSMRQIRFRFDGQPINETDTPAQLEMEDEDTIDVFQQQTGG
T4 sequence (P63313 whole entry): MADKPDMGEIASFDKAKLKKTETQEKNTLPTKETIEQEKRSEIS
T2 sequence (P62328 whole entry): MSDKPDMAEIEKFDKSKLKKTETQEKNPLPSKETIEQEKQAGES

O=C1OCC2=C1C(c1cccc(F)c1)c1cc3c(cc1N2CCO)OCO3 (stereo not shown) [SU056, 9-(3-fluorophenyl)-5-(2-hydroxyethyl)-6,9-dihydro-[1,3]dioxolo[4,5-g]furo[3,4-b]quinolin-8(5H)-one] was tested, and the “YB-1 and MDR1 expression in tumors (IHC)” value (YB-1 and MDR1 expression) was “strongly inhibits YB-1 expression followed by downregulation of downstream MDR1”, the ΔTm at 2.5 µM (CALM3) was 4.03 ± 1.07 °C and the ΔTm at 2.5 µM (TMSB4X) was 4.43 ± 1.31 °C. The ΔTm at 2.5 µM (SUMO2) was 5.4 ± 1.08 °C, the ΔTm at 2.5 µM (TMSB10) was 5.89 ± 1.18 °C and the ΔTm at 2.5 µM (PSMB2) was 5.36 ± 0.76 °C. The “cell cycle distribution in TNBC cells” value [1] was “G2/M phase arrest”.
